# Legend:
# human orexin-2 receptor = human orexin-2 receptor (Homo sapiens (Human), UniProt O43614); test: In vitro assay: intracellular calcium measurements (FLIPR), antagonistic activity; format: cell-based; conditions: CHO cells, 3 nM orexin-A, compound incubation 120 min; marked values are geometric means of n = 2-6; read-out: IC50 OX2
# human orexin-1 receptor = human orexin-1 receptor (Homo sapiens (Human), UniProt O43613); test: as above; format: cell-based; conditions: CHO cells, 3 nM orexin-A, compound incubation 120 min; marked values are geometric means of n = 2-6; read-out: IC50 OX1
# Chain of human orexin-1 receptor (O43613 whole entry): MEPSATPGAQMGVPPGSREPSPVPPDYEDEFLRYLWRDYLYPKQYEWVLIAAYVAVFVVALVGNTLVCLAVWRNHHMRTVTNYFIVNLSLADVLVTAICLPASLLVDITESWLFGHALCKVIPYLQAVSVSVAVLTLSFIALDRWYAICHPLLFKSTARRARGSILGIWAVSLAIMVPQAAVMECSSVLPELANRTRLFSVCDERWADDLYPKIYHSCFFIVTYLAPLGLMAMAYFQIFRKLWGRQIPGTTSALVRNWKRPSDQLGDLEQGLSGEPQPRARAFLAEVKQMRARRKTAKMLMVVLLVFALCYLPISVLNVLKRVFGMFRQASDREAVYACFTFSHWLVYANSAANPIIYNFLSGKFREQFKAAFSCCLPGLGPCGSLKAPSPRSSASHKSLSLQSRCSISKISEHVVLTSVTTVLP
# Chain of human orexin-2 receptor (O43614 whole entry): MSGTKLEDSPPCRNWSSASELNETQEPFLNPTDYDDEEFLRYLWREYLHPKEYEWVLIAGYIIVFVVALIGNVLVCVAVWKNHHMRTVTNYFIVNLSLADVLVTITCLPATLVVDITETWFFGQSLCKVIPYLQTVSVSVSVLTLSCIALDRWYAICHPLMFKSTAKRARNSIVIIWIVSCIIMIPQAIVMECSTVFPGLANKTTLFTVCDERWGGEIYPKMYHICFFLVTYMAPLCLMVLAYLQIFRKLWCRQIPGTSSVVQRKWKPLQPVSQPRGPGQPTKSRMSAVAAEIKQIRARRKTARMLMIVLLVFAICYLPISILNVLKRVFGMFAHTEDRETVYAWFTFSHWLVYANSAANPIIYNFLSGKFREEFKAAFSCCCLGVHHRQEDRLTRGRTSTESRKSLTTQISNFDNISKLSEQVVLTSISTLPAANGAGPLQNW
SMILES,IC50 (human orexin-2 receptor) [nM],IC50 (human orexin-1 receptor) [nM]
"COc1cncc(OC)c1C1CCCC(=O)N1Cc1cccc(-c2nccs2)c1 (stereo not drawn) [Example 61, 6-(3,5-dimethoxypyridin-4-yl)-1-(3-(thiazol-2-yl)benzyl)piperidin-2-one]",26,40
"COc1cncc(OC)c1C1CCCC(=O)N1Cc1cccc(-c2csc(C)n2)c1 (stereo not drawn) [Example 62, 6-(3,5-dimethoxypyridin-4-yl)-1-(3-(2-methylthiazol-4-yl)benzyl)piperidin-2-one]",33,25
"COc1cncc(OC)c1C1CCCC(=O)N1Cc1cccc(-c2ccccn2)c1 (stereo not drawn) [Example 63, 6-(3,5-dimethoxypyridin-4-yl)-1-(3-(pyridin-2-yl)benzyl)piperidin-2-one]",90,135
"COc1cncc(OC)c1C1CCCC(=O)N1Cc1csc(-c2ccccc2)n1 (stereo not drawn) [Example 64, 6-(3,5-dimethoxypyridin-4-yl)-1-((2-phenylthiazol-4-yl)methyl)piperidin-2-one]",246,618
"COc1cncc(OC)c1C1CCCC(=O)N1Cc1ccc2oc3ccccc3c2c1 (stereo not drawn) [Example 65, 1-(dibenzo[b,d]furan-2-ylmethyl)-6-(3,5-dimethoxypyridin-4-yl)piperidin-2-one]",1,6
"COc1cncc(OC)c1C1CCCC(=O)N1Cc1cccc(-n2cccn2)n1 (stereo not drawn) [Example 66, 1-((6-(1H-pyrazol-1-yl)pyridin-2-yl)methyl)-6-(3,5-dimethoxypyridin-4-yl)piperidin-2-one]",3700,3100
"COc1cncc(OC)c1C1CCCC(=O)N1Cc1cccc(-n2nccn2)c1 (stereo not drawn) [Example 67, 1-(3-(2H-1,2,3-triazol-2-yl)benzyl)-6-(3,5-dimethoxypyridin-4-yl)piperidin-2-one]",156,163
"COc1cncc(OC)c1C1CCCC(=O)N1Cc1cccc(-c2ccccc2)c1 (stereo not drawn) [Example 68, 1-([1,1′-biphenyl]-3-ylmethyl)-6-(3,5-dimethoxypyridin-4-yl)piperidin-2-one]",31,45
"COc1cccc(OC)c1C1CCCC(=O)N1Cc1cnc(OC(F)F)c(C)c1 (stereo not drawn) [Example 69, 1-((6-(difluoromethoxy)-5-methylpyridin-3-yl)methyl)-6-(2,6-dimethoxyphenyl)piperidin-2-one]",77,247
"COc1cccc(OC)c1C1CCCC(=O)N1Cc1csc(C)n1 (stereo not drawn) [Example 71, 6-(2,6-dimethoxyphenyl)-1-((2-methylthiazol-4-yl)methyl)piperidin-2-one]",6190,> 12600
"COc1cccc(OC)c1C1CCCCC(=O)N1Cc1cccc(-c2ccccc2)c1 (stereo not drawn) [Example 72, 1-([1,1′-biphenyl]-3-ylmethyl)-7-(2,6-dimethoxyphenyl)azepan-2-one]",12,3
"COc1cccc(OC)c1C1CCCCC(=O)N1Cc1ccc(Oc2ccccc2)cc1 (stereo not drawn) [Example 73, 7-(2,6-dimethoxyphenyl)-1-(4-phenoxybenzyl)azepan-2-one]",187,186
"COc1cccc(OC)c1C1CCCCC(=O)N1Cc1cccc(Oc2ccccc2)c1 (stereo not drawn) [Example 74, 7-(2,6-dimethoxyphenyl)-1-(3-phenoxybenzyl)azepan-2-one]",98,137
"COc1cccc(OC)c1C1CCCCC(=O)N1Cc1ccc2ccccc2c1 (stereo not drawn) [Example 75, 7-(2,6-dimethoxyphenyl)-1-(naphthalen-2-ylmethyl)azepan-2-one]",32,12
"COc1cccc(OC)c1C1CCCCC(=O)N1Cc1ccc(-c2ccccc2)cc1 (stereo not drawn) [Example 77, 1-([1,1′-biphenyl]-4-ylmethyl)-7-(2,6-dimethoxyphenyl)azepan-2-one]",188,305
"COc1cccc(OC)c1C1CCCCC(=O)N1Cc1ccccc1-c1ccccc1 (stereo not drawn) [Example 78, 1-([1,1′-biphenyl]-2-ylmethyl)-7-(2,6-dimethoxyphenyl)azepan-2-one]",806,323
"COc1cccc(OC)c1C1CCCCC(=O)N1Cc1ccc2ccccc2n1 (stereo not drawn) [Example 79, 7-(2,6-dimethoxyphenyl)-1-(quinolin-2-ylmethyl)azepan-2-one]",82,21
"COc1cccc(OC)c1C1CCCCC(=O)N1Cc1cnc2ccccc2c1 (stereo not drawn) [Example 80, 7-(2,6-dimethoxyphenyl)-1-(quinolin-3-ylmethyl)azepan-2-one]",1040,715
"COc1cccc(OC)c1C1CCCCC(=O)N1Cc1ccnc(-c2ccccc2)c1 (stereo not drawn) [Example 81, 7-(2,6-dimethoxyphenyl)-1-((2-phenylpyridin-4-yl)methyl)azepan-2-one]",58,7
"COc1cccc(OC)c1C1CCCCC(=O)N1Cc1cccc(-c2ccccc2)n1 (stereo not drawn) [Example 82, 7-(2,6-dimethoxyphenyl)-1-((6-phenylpyridin-2-yl)methyl)azepan-2-one]",26,7
"COc1cccc(OC)c1C1CCCCC(=O)N1Cc1cccc(-c2ncccn2)c1 (stereo not drawn) [Example 83, 7-(2,6-dimethoxyphenyl)-1-(3-(pyrimidin-2-yl)benzyl)azepan-2-one]",19,3
"COc1cccc(OC)c1C1CCCCC(=O)N1Cc1cccc(-c2ccccn2)c1 (stereo not drawn) [Example 84, 7-(2,6-dimethoxyphenyl)-1-(3-(pyridin-2-yl)benzyl)azepan-2-one]",7,3
"COc1cccc(OC)c1C1CCCCC(=O)N1Cc1cccc(-c2nccs2)c1 (stereo not drawn) [Example 85, 7-(2,6-dimethoxyphenyl)-1-(3-(thiazol-2-yl)benzyl)azepan-2-one]",3,2
"COc1cccc(OC)c1C1CCCCC(=O)N1Cc1ccc2c(c1)c1ccccc1n2C (stereo not drawn) [Example 86, 7-(2,6-dimethoxyphenyl)-1-((9-methyl-9H-carbazol-3-yl)methyl)azepan-2-one]",71,45
"COc1cccc(OC)c1C1CCCCC(=O)N1Cc1cccc(-c2cccnc2)c1 (stereo not drawn) [Example 87, 7-(2,6-dimethoxyphenyl)-1-(3-(pyridin-3-yl)benzyl)azepan-2-one]",46,21
"COc1cccc(OC)c1C1CCCCC(=O)N1Cc1cccc(N2CCCCC2)c1 (stereo not drawn) [Example 88, 7-(2,6-dimethoxyphenyl)-1-(3-(piperidin-1-yl)benzyl)azepan-2-one]",58,12
"COc1cccc(OC)c1C1CCCCC(=O)N1Cc1cnc(OC(F)F)c(Cl)c1 (stereo not drawn) [Example 89, 1-((5-chloro-6-(difluoromethoxy)pyridin-3-yl)methyl)-7-(2,6-dimethoxyphenyl)azepan-2-one]",85,385
"COc1cccc(OC)c1C1CCCCC(=O)N1Cc1ccc2oc3ccccc3c2c1 (stereo not drawn) [Example 90, 1-(dibenzo[b,d]furan-2-ylmethyl)-7-(2,6-dimethoxyphenyl)azepan-2-one]",3,1
"COc1cccc(OC)c1C1CCCCC(=O)N1Cc1cccc(-c2csc(C)n2)c1 (stereo not drawn) [Example 91, 7-(2,6-dimethoxyphenyl)-1-(3-(2-methylthiazol-4-yl)benzyl)azepan-2-one]",3,1
"COc1cccc(OC)c1C1CCCCC(=O)N1Cc1cncc(-c2ccccc2)c1 (stereo not drawn) [Example 92, 7-(2,6-dimethoxyphenyl)-1-((5-phenylpyridin-3-yl)methyl)azepan-2-one]",455,1060
